# Source: the METLIN SMRT retention time set (Domingo-Almenara et al. 2019)
# Test: gradient 5% acetonitrile 3 min, to 50% in 2 min, to 85% in 15 min, held 3 min, 100 µL/min
# Conditions: column: Zorbax Extend-C18 2.1 x 50 mm; eluents: water / acetonitrile, 0.1% formic acid
# How it was run: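 In both positive and negative ionization mode, a quadrupole time-of-flight mass spectrometer coupled to HPLC analyzed pure standards run in mixtures of ~100 molecules. The Zorbax Extend-C18 column (2.1 × 50 mm, 1.8 μm) was operated at 100 μL/min with water and acetonitrile, each containing 0.1% formic acid. The dead volume was 40 μL and the dwell volume 900 μL. Retention time came from adduct peaks that were computationally picked and individually inspected by hand.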
row,Compound,RP-LC retention time [s]
1,Cc1nc(N2CCOCC2)c2c(C(=O)NCC3CCN(Cc4ccccc4Cl)CC3)c(C)oc2n1,613
2,CCCC(=O)N1CCc2c(c(C(=O)NCc3ccc4c(c3)OCO4)nn2C)C1,728
3,CCn1nc(-c2nc(C(C)(C)C)no2)ccc1=O,883
4,O=C(CN1CCN(Cc2cccc(Cl)c2)C1=O)N1CCN(c2ccccc2)CC1,885
5,CCCN(CCC)[C@@H]1CCc2c(OC)cccc2[C@@H]1C,802
6,CCC(CC)C(=O)Nc1nc(-c2ccc3c(c2)NC(=O)C(C)O3)c(C)s1 (stereo unspecified),922
7,COc1ccc(-c2csc(Nc3ccc(S(=O)(=O)Nc4nc(C)cc(C)n4)cc3)n2)cc1C,966
8,Cc1cc(NC(=O)CN2C(=O)NC(c3ccccc3Cl)C3=C2COC3=O)ccc1Br (stereo unspecified),887
9,O=C(CSc1ccc(N2CCCC(C(=O)NC3CC3)C2)nn1)Nc1cccc(Cl)c1 (stereo unspecified),689
10,c1ccc2c(c1)CCN(c1ncnc3c1CCC3)C2,650
11,O=C(Cn1cccc(-c2nc(-c3ccc(Br)cc3)no2)c1=O)Nc1ccc(F)cc1F,990
12,CCOC(=O)c1noc2ncnc(NCC3CCN(Cc4cccc(F)c4)CC3)c12,705
13,Cc1ccc2c(c1Br)C(O)(CC(=O)c1ccc(F)cc1)C(=O)N2 (stereo unspecified),802
14,O=c1n(Cc2ccc(Cl)cc2)nc2ccc(S(=O)(=O)N3CCCCCC3)cn12,1020
15,O=C(Nc1ccc(F)c(F)c1)C1CCN(C(=O)C2Sc3ccccc3NC2=O)CC1 (stereo unspecified),810
16,Cc1ccc(S(=O)(=O)N2CC(F)(F)C[C@H]2CN2CCc3ccccc3C2)c(C)c1,816
17,CCN(CC)c1ccc(-c2noc(CN3CCC(C)CC3)n2)cn1,593
18,COc1ccc(C(=O)N2CCc3cc(-c4csc(C)n4)ccc32)cc1F,951

row,Compound,RP-LC retention time [s]
1,COc1ccc(C(=O)N2C[C@@H]3C[C@H](NS(=O)(=O)c4ccccc4)[C@H]2C3)cn1,695
2,CCCN(C)c1nccnc1OC1CCN(C(=O)C2CCC2)C1 (stereo unspecified),765
3,COc1ccc(NC(=O)C2CCCN(S(=O)(=O)c3c[nH]c(C(=O)N4CCCCCC4)c3)C2)cc1 (stereo unspecified),842
4,CCS(=O)(=O)N1CC(=O)N(c2ccc(F)cc2)C(C)(C(=O)NC2CCCCCCC2)C1 (stereo unspecified),938
5,Cc1ccc(-c2[nH]ncc2CN2C[C@@H](CO)[C@H](c3ccncc3)C2)cc1,604
6,Cn1nc(-c2nc(C3CC3)no2)c2c1CCN(C(=O)c1ccc(F)c(Cl)c1)C2,900
7,CCOC(=O)c1sc(NC(=O)C2CCCO2)nc1-c1ccccc1 (stereo unspecified),950
8,Fc1ccc(Cc2nc3nccc(-c4cc5ccccc5o4)n3n2)cc1,1130
9,Cc1cc(C(=O)N2C[C@@H](C)[C@H](c3nc(-c4ccccc4)no3)C2)n[nH]1,804
10,Cc1cc(N2CCN(C)CC2)nc2ccc(NC(=O)NCc3ccc(F)cc3)cc12,556
11,Cc1ccc(-n2c(=O)c3sccc3n(Cc3nc(-c4ccc(Br)cc4)no3)c2=O)cc1,1110
12,O=C(NCc1csc(-c2ccccc2)n1)C1CCN(S(=O)(=O)c2ccc(Cl)s2)CC1,995
13,Cc1ccc(CNC(=O)Cn2c(N(C)Cc3ccccc3)nc(C)cc2=O)cc1,778
14,CCC(=O)Nc1nc(-c2ccc3c(c2)NC(=O)CO3)cs1,704
15,COc1ccc(-c2cc(C(=O)Nc3ccc4c(c3)CCC(=O)N4)c3ccccc3n2)cc1,822
16,CCC1(O)CCOC2(CCN(Cc3ccncc3F)CC2)C1 (stereo unspecified),554
17,O=C(NC1CC1)c1cn(-c2ncccc2-c2nc(-c3ccccc3)no2)cn1,762
18,Cc1ccc(F)cc1S(=O)(=O)N1CCC(n2cnnc2C(C)C)CC1,740
